For assay [1], the target named is T1, baculovirus-expressed ALK (Homo sapiens, UniProt Q9UM73).
T1 construct: host or cells: baculovirus expression system
The assay is described as follows: ALK Kinase Assay (ELISA-type, time-resolved fluorescence). Format: biochemical. In a few lines:
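Wells were coated with phospholipase C-γ at 10 μg/mL in Tris-buffered saline. Adding 30 ng/ml enzyme started the reaction, which ran at 37° C for 15 minutes before Eu-N1 PT66 antibody detection. Percent inhibition versus log10 concentration gave IC50 by variable-slope fit.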

Assay [2] addresses T2, c-Met (cytoplasmic domain) (Homo sapiens, UniProt P08581).
T2 construct: 10 ng/mL c-Met (cytoplasmic domain, Invitrogen Corporation #PV3143); purchased Invitrogen Corporation PV3143
The assay can be described thus: c-Met Kinase Assay (same methods as for ALK, with modifications). Format: biochemical. In a few lines:
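IC50 values were fitted by variable-slope sigmoidal regression of percent inhibition against log compound concentration. Phosphorylation was read with Eu-N1 PT66 antibody after a 15 min, 37 °C reaction. The reaction was initiated with 10 ng/mL c-Met cytoplasmic domain on wells coated with 10 μg/mL PLC-γ in TBS.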

Setting [3] is: ALK kinase inhibition, 1 μM ATP, read-out: ALK Activity.
[4] abbreviates: c-Met kinase inhibition, 1 μM ATP, read-out: cMet Activity.
[5] abbreviates: 1 μM ATP (Km level), 30 ng/ml ALK, 37° C., 15 minutes, read-out: ALK Activity (ALK kinase inhibition, IC50 class).
Where [6] appears, read: 1 μM ATP (Km level), 10 ng/mL c-Met, read-out: cMet Activity (c-Met kinase inhibition, IC50 class).
[7] abbreviates: 1 μM ATP (Km level), read-out: ALK Activity (ALK Kinase Inhibition, IC50).
[8] abbreviates: ALK kinase inhibition, 1 μM ATP (Km level), read-out: ALK Activity.
Where [9] appears, read: c-Met kinase inhibition, 1 μM ATP (Km level), read-out: cMet Activity.
Where [10] appears, read: 1 μM ATP (Km level), read-out: cMet Activity (c-Met Kinase Inhibition, IC50).

The structures appear in SMILES notation. Read-outs that look alike come from different tables or passages of the source.

T2 sequence (P08581 956-1390 limits assumed): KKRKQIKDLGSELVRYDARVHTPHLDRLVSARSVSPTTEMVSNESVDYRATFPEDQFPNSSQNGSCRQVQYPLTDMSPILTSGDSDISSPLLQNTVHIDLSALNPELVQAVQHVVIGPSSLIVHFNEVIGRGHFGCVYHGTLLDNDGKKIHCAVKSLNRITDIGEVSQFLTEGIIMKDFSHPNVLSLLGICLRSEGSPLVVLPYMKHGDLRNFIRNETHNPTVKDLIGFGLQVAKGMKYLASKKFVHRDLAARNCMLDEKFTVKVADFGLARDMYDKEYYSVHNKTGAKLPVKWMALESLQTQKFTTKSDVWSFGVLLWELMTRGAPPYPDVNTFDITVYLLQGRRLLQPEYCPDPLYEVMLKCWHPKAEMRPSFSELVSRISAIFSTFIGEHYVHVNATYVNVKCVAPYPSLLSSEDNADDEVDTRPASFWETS
T1 sequence (Q9UM73 19-1620): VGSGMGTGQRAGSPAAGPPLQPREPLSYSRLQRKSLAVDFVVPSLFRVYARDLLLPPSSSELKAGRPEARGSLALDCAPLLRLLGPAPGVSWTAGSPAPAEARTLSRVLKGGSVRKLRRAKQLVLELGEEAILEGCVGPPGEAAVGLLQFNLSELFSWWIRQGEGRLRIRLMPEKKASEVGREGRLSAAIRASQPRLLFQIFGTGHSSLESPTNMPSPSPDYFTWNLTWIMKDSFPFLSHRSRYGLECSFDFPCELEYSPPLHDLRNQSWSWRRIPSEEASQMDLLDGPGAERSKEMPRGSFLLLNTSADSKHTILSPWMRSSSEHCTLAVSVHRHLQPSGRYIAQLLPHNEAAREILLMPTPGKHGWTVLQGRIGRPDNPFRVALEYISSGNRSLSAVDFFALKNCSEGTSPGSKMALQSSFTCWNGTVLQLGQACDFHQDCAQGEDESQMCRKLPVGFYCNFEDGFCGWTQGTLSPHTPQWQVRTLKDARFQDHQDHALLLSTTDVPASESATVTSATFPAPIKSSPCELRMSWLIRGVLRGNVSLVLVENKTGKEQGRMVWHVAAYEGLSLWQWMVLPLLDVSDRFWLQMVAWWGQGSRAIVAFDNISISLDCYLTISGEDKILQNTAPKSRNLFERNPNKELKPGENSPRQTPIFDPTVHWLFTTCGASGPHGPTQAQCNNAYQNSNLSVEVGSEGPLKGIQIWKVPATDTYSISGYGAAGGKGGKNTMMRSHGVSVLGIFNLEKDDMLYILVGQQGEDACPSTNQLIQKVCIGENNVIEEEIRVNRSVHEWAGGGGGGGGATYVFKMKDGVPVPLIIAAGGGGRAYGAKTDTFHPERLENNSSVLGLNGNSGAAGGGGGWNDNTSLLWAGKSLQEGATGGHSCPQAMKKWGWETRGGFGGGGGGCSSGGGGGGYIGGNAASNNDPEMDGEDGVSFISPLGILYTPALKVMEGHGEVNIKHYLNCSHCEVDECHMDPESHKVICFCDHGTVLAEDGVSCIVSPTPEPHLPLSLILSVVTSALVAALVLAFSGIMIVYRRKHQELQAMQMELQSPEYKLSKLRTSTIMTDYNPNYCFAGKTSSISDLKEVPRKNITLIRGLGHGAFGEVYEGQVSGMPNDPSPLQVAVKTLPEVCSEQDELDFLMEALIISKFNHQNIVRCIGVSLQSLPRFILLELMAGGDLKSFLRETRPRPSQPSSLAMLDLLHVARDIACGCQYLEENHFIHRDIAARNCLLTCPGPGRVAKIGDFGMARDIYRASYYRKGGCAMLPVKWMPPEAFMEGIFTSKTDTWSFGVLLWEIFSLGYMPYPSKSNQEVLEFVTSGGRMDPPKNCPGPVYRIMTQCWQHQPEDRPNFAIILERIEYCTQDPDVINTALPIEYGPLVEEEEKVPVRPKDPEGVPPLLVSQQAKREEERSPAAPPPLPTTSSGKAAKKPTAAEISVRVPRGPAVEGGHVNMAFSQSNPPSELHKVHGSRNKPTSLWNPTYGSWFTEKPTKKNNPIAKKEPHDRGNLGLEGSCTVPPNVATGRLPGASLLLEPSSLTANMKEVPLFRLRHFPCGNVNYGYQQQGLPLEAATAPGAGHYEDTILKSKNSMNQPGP

`CNC(=O)c1sccc1Nc1nc(Nc2ccc3c(c2)OCCCN3C(=O)CN2CCCC2)ncc1Cl` [Example 1715, 3-{5-Chloro-2-[9-(2-pyrrolidin-1-yl-acetyl)-6,7,8,9-tetrahydro-5-oxa-9-aza-benzocyclohepten-3-ylamino]-pyrimidin-4-ylamino}-thiophene-2-carboxylic acid methylamide]: the IC50 in assay [1] (setting [3]) and in assay [2] (setting [4]) was 0.1 to 1 µM in each case.
For the compound `COCCN1CCc2ccc(Nc3ncc(Cl)c(Nc4ccccc4C(=O)NCCN(C)C)n3)cc2CC1` [Example 1397, {5-Chloro-2-[3-(2-methoxy-ethyl)-2,3,4,5-tetrahydro-1H-benzo[d]azepin-7-ylamino]-pyrimidin-4-ylamino}-N-(2-dimethylamino-ethyl)-benzamide], the IC50 in assay [1] (setting [5]) and in assay [2] (setting [6]) was 0.1 to 1 µM throughout.
As to `CC1(C)CCCN(CCN2CCCC2)c2cc(Nc3ncc(Cl)c(N[C@H]4[C@@H](C(N)=O)[C@@H]5C=C[C@H]4C5)n3)ccc21` [Example 1606, (1S,2S,3R,4R)-3-{5-Chloro-2-[5,5-dimethyl-1-(2-pyrrolidin-1-yl-ethyl)-2,3,4,5-tetrahydro-1H-benzo[b]azepin-8-ylamino]-pyrimidin-4-ylamino}-bicyclo[2.2.1]hept-5-ene-2-carboxylic acid amide], the figures for the IC50 in assay [1] (setting [3]) and in assay [2] (setting [4]) were less than 0.1 µM and 1 to 10 µM, respectively.
On to `COCCN1CCc2cc(Nc3ncc(Cl)c(N[C@@H]4CCCC[C@H]4N(C)S(C)(=O)=O)n3)c(OC)cc2CC1` [Example 1676, N-((1R,2R)-2-{5-Chloro-2-[8-methoxy-3-(2-methoxy-ethyl)-2,3,4,5-tetrahydro-1H-benzo[d]azepin-7-ylamino]-pyrimidin-4-ylamino}-cyclohexyl)-N-methyl-methanesulfonamide], for which the IC50 in assay [1] (setting [3]) is less than 0.1 µM; in assay [2] (setting [4]), greater than 10 µM.
Turning to `COc1c(Nc2ncc(Cl)c(N[C@H]3[C@@H](C(N)=O)[C@@H]4C=C[C@H]3C4)n2)ccc2c1CCCC(N1CCOCC1)C2` (single isomer, unassigned) [Example 940], the IC50 in assay [1] (setting [7]) is less than 0.1 µM; in assay [2] (cMet Activity (c-Met Kinase Inhibition, IC50), 1 μM ATP (Km level)) it was greater than 10 µM.
For `CCN1CCc2ccc(Nc3ncc(Cl)c(Nc4cccc(N5CCOCC5)c4)n3)cc2CC1` [Example 444, 5-Chloro-N*2*-(3-ethyl-2,3,4,5-tetrahydro-1H-benzo[d]azepin-7-yl)-N*4*-(3-morpholin-4-yl-phenyl)-pyrimidine-2,4-diamine], the IC50 is less than 0.1 µM in assay [1] (setting [8]) and 1 to 10 µM in assay [2] (setting [9]).
`COc1ccc2c(c1Nc1ncc(Cl)c(N[C@@H]3CCCC[C@H]3NS(C)(=O)=O)n1)CCC(NCC(F)F)CC2` (single isomer, unassigned) [Example 1074]: the results for the IC50 in assay [1] (setting [5]) and in assay [2] (setting [6]) were 0.1 to 1 µM and greater than 10 µM, respectively.
Consider `CCN1C(=O)CCC(C)(C)c2cc(Nc3ncc(Cl)c(N[C@H]4[C@@H](C(N)=O)[C@@H]5C=C[C@H]4C5)n3)c(OC)cc21` [Example 1314, (1S,2S,3R,4R)-3-[5-Chloro-2-(1-ethyl-8-methoxy-5,5-dimethyl-2-oxo-2,3,4,5-tetrahydro-1H-benzo[b]azepin-7-ylamino)-pyrimidin-4-ylamino]-bicyclo[2.2.1]hept-5-ene-2-carboxylic acid amide], for which the values for the IC50 in assay [1] (setting [5]) and in assay [2] (setting [6]) were less than 0.1 µM and greater than 10 µM, respectively.
For the compound `COc1c(Nc2ncc(Cl)c(Nc3ccccc3S(=O)(=O)N3CCCC3)n2)ccc2c1CCC(N1CCOCC1)CC2` (centres unmarked) [Example 900, 5-Chloro-N*2*-(1-methoxy-7-morpholin-4-yl-6,7,8,9-tetrahydro-5H-benzocyclohepten-2-yl)-N*4*-[2-(pyrrolidine-1-sulfonyl)-phenyl]-pyrimidine-2,4-diamine], the IC50 is less than 0.1 µM in assay [1] (setting [7]) and 1 to 10 µM in assay [2] (setting [10]).
The like results for `CCNC(=O)c1ccccc1Nc1nc(Nc2cc3c(cc2OC)CCN(CC(F)F)CC3)ncc1Cl` [Example 767, 2-{5-Chloro-2-[3-(2,2-difluoro-ethyl)-8-methoxy-2,3,4,5-tetrahydro-1H-benzo[d]azepin-7-ylamino]-pyrimidin-4-ylamino}-N-ethyl-benzamide] were, in that order, less than 0.1 µM and greater than 10 µM.
Regarding `CCN1CCN(CC)c2cc(Nc3ncc(Cl)c(Nc4ccccc4C(=O)NC)n3)ccc2C1=O` [Example 418, 2-[5-Chloro-2-(1,4-diethyl-5-oxo-2,3,4,5-tetrahydro-1H-benzo[e][1,4]diazepin-8-ylamino)-pyrimidin-4-ylamino]-N-methylbenzamide], the IC50 in assay [1] (setting [8]) and in assay [2] (setting [9]) was less than 0.1 µM in each case.
For the compound `CCN1C(=O)CCC(C)(C)c2ccc(Nc3ncc(Cl)c(Nc4ccccc4S(C)(=O)=O)n3)cc21` [Example 1248, 8-[5-Chloro-4-(2-methanesulfonyl-phenylamino)-pyrimidin-2-ylamino]-1-ethyl-5,5-dimethyl-1,3,4,5-tetrahydro-1-benzazepin-2-one], the IC50 in assay [1] (setting [5]) and in assay [2] (setting [6]) was less than 0.1 µM each time.
`COCCNC1CCc2cc(Nc3ncc(Cl)c(Nc4ccccc4S(=O)(=O)N4CCC(O)C4)n3)c(OC)cc2CC1` (centres unmarked) [Example 1082, 1-(2-{5-Chloro-2-[3-methoxy-7-(2-methoxy-ethylamino)-6,7,8,9-tetrahydro-5H-benzocyclohepten-2-ylamino]-pyrimidin-4-ylamino}-benzenesulfonyl)-pyrrolidin-3-ol]: the IC50 in assay [1] (setting [5]) is less than 0.1 µM; in assay [2] (setting [6]) it was 1 to 10 µM.
As for `COc1ccc(Nc2ncc(Cl)c(Nc3ccccc3S(=O)(=O)C(C)C)n2)c2c1CCCC(N1CCOCC1)C2` (centres unmarked) [Example 946, 5-Chloro-N(2)-(4-methoxy-8-morpholin-4-yl-6,7,8,9-tetrahydro-5H-benzocyclohepten-1-yl)-N(4)-[2-(propane-2-sulfonyl)-phenyl]-pyrimidine-2,4-diamine], the IC50 is 0.1 to 1 µM in assay [1] (setting [7]) and greater than 10 µM in assay [2] (setting [10]).
`CNC(=O)c1cc(Br)cc(F)c1Nc1nc(Nc2ccc3c(c2)NC(=O)CCC3)ncc1Cl` [Example 1414, 5-Bromo-2-[5-chloro-2-(2-oxo-2,3,4,5-tetrahydro-1H-benzo[b]azepin-8-ylamino)-pyrimidin-4-ylamino]-3-fluoro-N-methyl-benzamide]: the IC50 in assay [1] (setting [5]) is 0.1 to 1 µM; in assay [2] (setting [6]), less than 0.1 µM.
Turning to `NC(=O)C1C2C=CC(C2)C1Nc1nc(Nc2cccc3c2OCCCC3)ncc1Cl` (stereo not drawn) [Example 861, (2-exo-3-exo)-3-[5-Chloro-2-(2,3,4,5-tetrahydro-benzo[b]oxepin-9-ylamino)-pyrimidin-4-ylamino]-bicyclo[2.2.1]hept-5-ene-2-carboxylic acid amide], the IC50 in assay [1] (setting [7]) is less than 0.1 µM; in assay [2] (setting [10]), greater than 10 µM.
For `COc1ccc(Nc2ncc(Cl)c(Nc3ccccc3S(=O)(=O)N(C)C)n2)c2c1CCCC(N1CCOCC1)C2` (centres unmarked) [Example 945, 2-[5-Chloro-2-(4-methoxy-8-morpholin-4-yl-6,7,8,9-tetrahydro-5H-benzocyclohepten-1-ylamino)-pyrimidin-4-ylamino]-N,N-dimethyl-benzenesulfonamide], the IC50 in assay [1] (setting [7]) was 1 to 10 µM; in assay [2] (setting [10]), greater than 10 µM.
With `COc1cc2c(cc1Nc1ncc(Cl)c(NC3(C(=O)OC(C)C)CCCC3)n1)CCN(CC(=O)N(C)C)CC2` [Example 1202, 1-[5-Chloro-2-(3-dimethylcarbamoylmethyl-8-methoxy-2,3,4,5-tetrahydro-1H-benzo[d]azepin-7-ylamino)-pyrimidin-4-ylamino]-cyclopentanecarboxylic acid isopropyl ester], the IC50 is 0.1 to 1 µM in assay [1] (setting [5]) and greater than 10 µM in assay [2] (setting [6]).
In the case of `CNC(=O)c1ccccc1Nc1nc(Nc2ccc3c(c2)CCCC(=O)N3C)ncc1Br` [Example 197, 2-[5-Bromo-2-(1-methyl-2-oxo-2,3,4,5-tetrahydro-1H-benzo[b]azepin-7-ylamino)-pyrimidin-4-ylamino]-N-methyl-benzamide], the IC50 in assay [1] (setting [8]) and in assay [2] (setting [9]) was less than 0.1 µM in each case.
As for `CN(C)C(=O)N1CCN(C)c2cc(Nc3ncc(Cl)c(N[C@@H]4CCCC[C@H]4NS(C)(=O)=O)n3)ccc2C1` [Example 481, 8-[5-Chloro-4-((1R,2R)-2-methanesulfonylamino-cyclohexylamino)-pyrimidin-2-ylamino]-1-methyl-1,2,3,5-tetrahydro-benzo[e][1,4]diazepine-4-carboxylic acid dimethylamide], the IC50 is less than 0.1 µM in assay [1] (setting [8]) and 1 to 10 µM in assay [2] (setting [9]).
As for `COc1ccc(Nc2nc(Nc3ccc4c(c3)CCN(CC3COCCO3)CC4)ncc2Cl)c(-n2cccn2)c1` (centres unmarked) [Example 642, 5-Chloro-N*2*-(3-[1,4]dioxan-2-ylmethyl-2,3,4,5-tetrahydro-1H-benzo[d]azepin-7-yl)-N*4*-(4-methoxy-2-pyrazol-1-yl-phenyl)-pyrimidine-2,4-diamine], the IC50 was less than 0.1 µM in assay [1] (setting [7]) and 0.1 to 1 µM in assay [2] (setting [10]).
In the case of `N#CCNC(=O)c1cccc(F)c1Nc1nc(Nc2ccc3c(c2)CCCC(=O)N3)ncc1Cl` [Example 1046, 2-[5-Chloro-2-(2-oxo-2,3,4,5-tetrahydro-1H-benzo[b]azepin-7-ylamino)-pyrimidin-4-ylamino]-N-cyanomethyl-3-fluoro-benzamide], the IC50 in assay [1] (setting [5]) and in assay [2] (setting [6]) was less than 0.1 µM throughout.

For the origin of these results see patent publication US8148391B2 (Cephalon, Inc., priority 2006, dated 2012).
